Source: patent publication US9480695B2, “Methods for inducing orexin neurons and agent for treating narcolepsy or eating disorder” (THE UNIVERSITY OF TOKYO, priority 2011, dated 2016)

System: human iPS cell strain 201B7
Test: Hcrt expression with ManNAc plus Sirt inhibitor and Ogt inhibitor, neural differentiation from human iPS cell, RT-PCR
Format: cell-based
Settings: ManNAc 1.0 mM from 0th day, EX-527 50 nM and/or BADGP 5 mM on 14th day, collected 20th day; FIG. 10
Description: A human iPS cell strain 201B7 (HSP0001) was obtained from Riken BioResource Center via National BioResource Project (MEXT, Japan). The human iPS cell was maintained on a feeder layer of a mitomycin C-treated STO/Neo resistant/LIF (SNL) feeder cell in a primate ES medium (ReproCELL) complemented with 5 ng/mL recombinant human bFGF (Wako). The human iPS cell was co-cultured with PA6 for 20 days, for differentiation induction into a nerve with a SIDA and BMP4 system. From 7th day, 5 nM BMP4 was complemented. A detailed protocol of differentiation induction into a nerve cell is shown in the lower column of FIG. 11. From the initiation of differentiation culturing (0th day), ManNAc was added to a neural differentiation medium so that the concentration became 1.0 mM, and on 7th, 10th and 14th days of differentiation culturing, the medium was exchanged. In addition, from 7th day of differentiation culturing, 5 nM recombinant human BMP4 (Wako) was added. On 14th day of differentiation culturing, EX-527 (SIGMA-ALDRICH) was added to a neural differentiation medium so that the concentration became 50 nM, or BADGP (SIGMA-ALDRICH) was added to a neural differentiation medium so that the concentration became 5 mM, and on 20th day of differentiation culturing, cells were collected and subjected to RT-PCR. The conditions of RT-PCR are the same as those of Example 1.

## CC(=O)N[C@@H]1C(O)O[C@H](CO)[C@@H](O)[C@@H]1O (stereo partly drawn) [ManNAc, N-acetyl-D-mannosamine]
  Expression of an orexin gene (Hcrt): recognized in a ManNAc-added section and an EX-527-added section to the same extent
